Results reported in patent US11806342B2, “Diiodohydroxyquinoline for the treatment of clostridium difficile infection” (Purdue Research Foundation, priority 2019, dated 2023).
Like-named read-outs stand apart in the source and are kept apart here.

Columns and labels:
Assay type in all cases: cell-based, Clostridium difficile
C. difficile ATCC 1801 [1] = assay: MIC and MBC, broth microdilution; conditions: Clostridioides difficile, ATCC1801
Procedure: (§1) Antibacterial activity of Diiodohydroxyquinoline against a wide panel of Clostridium difficile strains. […] MIC50 and MIC90 are the minimum concentration of each agent that inhibited growth of 50% and 90% of the tested isolates, respectively. The minimum bactericidal concentration (MBC) of these drugs was tested by plating 5 μL from wells with no growth onto BHIS agar plates. The MBC was categorized as the lowest concentration that reduced bacterial growth by 99.9% MIC50 and MIC90 are the minimum concentration of each agent that inhibited the growth of 50% and 90% of the tested isolates, respectively. The minimum bactericidal concentration (MBC) of these drugs was tested by plating 5 μL from wells with no growth onto BHIS agar plates. The MBC was categorized as the lowest concentration that reduced bacterial growth by 99.9% [29-31].

C. difficile ATCC 43255 = assay: MIC and MBC, broth microdilution; conditions: Clostridioides difficile, ATCC43255
Procedure: as §1

C. difficile HM-745 = assay: MIC and MBC, broth microdilution; conditions: Clostridioides difficile, HM745
Procedure: as §1

C. difficile I10 = assay: MIC and MBC, broth microdilution; conditions: Clostridioides difficile
Procedure: as §1

C. difficile I11 = assay: MIC and MBC, broth microdilution; conditions: Clostridioides difficile
Procedure: as §1

C. difficile I13 = assay: MIC and MBC, broth microdilution; conditions: Clostridioides difficile
Procedure: as §1

C. difficile I6 [2] = assay: MIC and MBC, broth microdilution; conditions: Clostridioides difficile
Procedure: as §1

C. difficile I9 = assay: MIC and MBC, broth microdilution; conditions: Clostridioides difficile
Procedure: as §1

C. difficile NR-49278 = assay: MIC and MBC, broth microdilution; conditions: Clostridioides difficile, NR49278
Procedure: as §1

C. difficile NR-49285 = assay: MIC and MBC, broth microdilution; conditions: Clostridioides difficile, NR49285
Procedure: as §1

C. difficile NR-49288 = assay: MIC and MBC, broth microdilution; conditions: Clostridioides difficile, NR49288
Procedure: as §1

C. difficile P15 = assay: MIC and MBC, broth microdilution; conditions: Clostridioides difficile
Procedure: as §1

C. difficile P19 [3] = assay: MIC and MBC, broth microdilution; conditions: Clostridioides difficile
Procedure: as §1

C. difficile P20 = assay: MIC and MBC, broth microdilution; conditions: Clostridioides difficile
Procedure: as §1

C. difficile P30 [4] = assay: MIC and MBC, broth microdilution; conditions: Clostridioides difficile
Procedure: as §1

C. difficile P3 = assay: MIC and MBC, broth microdilution; conditions: Clostridioides difficile
Procedure: as §1

C. difficile P5 = assay: MIC and MBC, broth microdilution; conditions: Clostridioides difficile
Procedure: as §1

C. difficile P6 = assay: MIC and MBC, broth microdilution; conditions: Clostridioides difficile
Procedure: as §1

[5] = system: C. difficile ATCC BAA-1870; assay: Time kill kinetics assay; conditions: C. difficile ATCC BAA-1870, 5×MIC, 24 hours
Procedure: Time kill kinetics assay. In order to examine the killing kinetics of DIHQ, a time kill kinetics assay was performed against Clostridium difficile ATCC BAA 1870 and C. difficile NR-49277 as described previously. […] Aliquots were collected from each treatment after 0, 4, 6, 8, 12, and 24 hours of incubation at 37° C. and subsequently serially diluted and plated for viable CFU/mL determination.

C. difficile ATCC 1801 [6] = assay: Checkerboard assay, DIHQ with metronidazole or vancomycin
Procedure: (§2) Interactions between diiodohydroxyquinoline and the anticlostridial drugs (metronidazole and vancomycin) against Clostridium difficile clinical isolates. […] The fractional inhibitory concentration index (ΣFIC) was calculated for each interaction. Interactions where the ΣFIC index was ≤0.5 were categorized as synergistic (SYN).

C. difficile ATCC 9689 = assay: as above
Procedure: as §2

C. difficile I6 [7] = assay: as above
Procedure: as §2

C. difficile P11 = assay: as above
Procedure: as §2

C. difficile P19 [8] = assay: as above
Procedure: as §2

C. difficile P30 [9] = assay: as above
Procedure: as §2

CN[C@H](CC(C)C)C(=O)N[C@H]1C(=O)N[C@@H](CC(N)=O)C(=O)N[C@H]2C(=O)N[C@H]3C(=O)N[C@H](C(=O)N[C@H](C(=O)O)c4cc(O)cc(O)c4-c4cc3ccc4O)[C@H](O)c3ccc(c(Cl)c3)Oc3cc2cc(c3O[C@@H]2O[C@H](CO)[C@@H](O)[C@H](O)[C@H]2O[C@H]2C[C@](C)(N)[C@H](O)[C@H](C)O2)Oc2ccc(cc2Cl)[C@H]1O [Vancomycin, vancomycin]
0.5 µg/mL: MIC (C. difficile I10; I10) | MBC (C. difficile I6 [2]; I6) | MIC (C. difficile I6 [2]; I6) | MBC (C. difficile I9; I9) | MIC (C. difficile I9; I9) | MBC (C. difficile NR-49278) | MBC (C. difficile NR-49285) | MIC (C. difficile NR-49285) | MIC (C. difficile NR-49288) | MBC (C. difficile P30 [4]; P30) | MIC (C. difficile P30 [4]; P30) | MBC (C. difficile P5; P5) | MIC (C. difficile P5; P5) | MIC (C. difficile ATCC 1801 [6]; Clostridioides difficile, ATCC1801, read-out: MIC alone) | MIC (C. difficile I6 [7]; Clostridioides difficile, I6, read-out: MIC alone)
1 µg/mL: MBC (C. difficile ATCC 1801 [1]) | MIC (C. difficile ATCC 1801 [1]) | MBC (C. difficile ATCC 43255) | MIC (C. difficile ATCC 43255) | MBC (C. difficile HM-745) | MIC (C. difficile HM-745) | MBC (C. difficile I10; I10) | MBC (C. difficile I11; I11) | MIC (C. difficile I11; I11) | MBC (C. difficile I13; I13) | MIC (C. difficile I13; I13) | MBC (C. difficile NR-49288) | MBC (C. difficile P15; P15) | MIC (C. difficile P15; P15) | MBC (C. difficile P19 [3]; P19) | MIC (C. difficile P19 [3]; P19) | MBC (C. difficile P20; P20) | MIC (C. difficile P20; P20) | MBC (C. difficile P3; P3) | MIC (C. difficile P3; P3) | MBC (C. difficile P6; P6) | MIC (C. difficile P6; P6) | MIC (C. difficile ATCC 9689; Clostridioides difficile, ATCC9689, read-out: MIC alone) | MIC (C. difficile P11; Clostridioides difficile, P11, read-out: MIC alone) | MIC (C. difficile P19 [8]; Clostridioides difficile, P19, read-out: MIC alone) | MIC (C. difficile P30 [9]; Clostridioides difficile, P30, read-out: MIC alone)
0.25 µg/mL: MIC (C. difficile NR-49278)
0.125 µg/mL: MIC of vancomycin combined with DIHQ (C. difficile ATCC 9689; C. difficile ATCC 9689) | MIC of vancomycin combined with DIHQ (C. difficile P11; C. difficile P11) | MIC of vancomycin combined with DIHQ (C. difficile P19 [8]; C. difficile P19) | MIC of vancomycin combined with DIHQ (C. difficile P30 [9]; C. difficile P30)
1.7 log10 CFU/mL: reduction of bacterial burden within 24 hours [5]
0.06 µg/mL: MIC of vancomycin combined with DIHQ (C. difficile ATCC 1801 [6]; C. difficile ATCC 1801) | MIC of vancomycin combined with DIHQ (C. difficile I6 [7]; C. difficile I6)

CCc1c(Cl)c(O)c(Cl)c(O)c1C(=O)O[C@H]1[C@H](O)[C@H](OC)[C@H](OC/C2=C\C=C\C[C@H](O)/C(C)=C/[C@H](CC)[C@@H](O[C@@H]3OC(C)(C)[C@@H](OC(=O)C(C)C)[C@H](O)[C@@H]3O)/C(C)=C/C(C)=C/C[C@@H]([C@@H](C)O)OC2=O)O[C@@H]1C [Fidaxomicin, fidaxomicin]
0.03 µg/mL: MBC (C. difficile I10; C. difficile I10, read-out: MBC) | MBC (C. difficile I13; C. difficile I13, read-out: MBC) | MIC (C. difficile I13; C. difficile I13, read-out: MIC) | MBC (C. difficile I9; C. difficile I9, read-out: MBC) | MIC (C. difficile I9; C. difficile I9, read-out: MIC) | MBC (C. difficile NR-49285; C. difficile NR-49285, read-out: MBC) | MIC (C. difficile P19 [3]; C. difficile P19, read-out: MIC) | MBC (C. difficile P3; C. difficile P3, read-out: MBC) | MBC (C. difficile P5; C. difficile P5, read-out: MBC) | MIC (C. difficile P5; C. difficile P5, read-out: MIC)
0.003 µg/mL: MBC (C. difficile P6; C. difficile P6, read-out: MBC) | MIC (C. difficile P6; C. difficile P6, read-out: MIC)
0.06 µg/mL: MIC (C. difficile ATCC 1801 [1]; C. difficile ATCC 1801, read-out: MIC) | MIC (C. difficile HM-745; C. difficile HM-745, read-out: MIC) | MBC (C. difficile I6 [2]; C. difficile I6, read-out: MBC) | MIC (C. difficile I6 [2]; C. difficile I6, read-out: MIC) | MBC (C. difficile P15; C. difficile P15, read-out: MBC) | MIC (C. difficile P15; C. difficile P15, read-out: MIC) | MBC (C. difficile P19 [3]; C. difficile P19, read-out: MBC)
0.125 µg/mL: MBC (C. difficile ATCC 1801 [1]; C. difficile ATCC 1801, read-out: MBC) | MBC (C. difficile HM-745; C. difficile HM-745, read-out: MBC)
0.007 µg/mL: MIC (C. difficile NR-49278; C. difficile NR-49278, read-out: MIC) | MIC (C. difficile NR-49288; C. difficile NR-49288, read-out: MIC) | MBC (C. difficile P30 [4]; C. difficile P30, read-out: MBC) | MIC (C. difficile P30 [4]; C. difficile P30, read-out: MIC)
0.015 µg/mL: MBC (C. difficile ATCC 43255; C. difficile ATCC 43255, read-out: MBC) | MIC (C. difficile ATCC 43255; C. difficile ATCC 43255, read-out: MIC) | MIC (C. difficile I10; C. difficile I10, read-out: MIC) | MBC (C. difficile I11; C. difficile I11, read-out: MBC) | MIC (C. difficile I11; C. difficile I11, read-out: MIC) | MBC (C. difficile NR-49278; C. difficile NR-49278, read-out: MBC) | MIC (C. difficile NR-49285; C. difficile NR-49285, read-out: MIC) | MBC (C. difficile NR-49288; C. difficile NR-49288, read-out: MBC) | MBC (C. difficile P20; C. difficile P20, read-out: MBC) | MIC (C. difficile P20; C. difficile P20, read-out: MIC) | MIC (C. difficile P3; C. difficile P3, read-out: MIC)
